From US20100021379A1, “Chemical Antibodies for Immunotherapy and Imaging” (The Regents of the University of California, priority 2006, published 2010) come the findings set out here.

For the assay, the system named is K562 cells transfected with the alpha4 integrin subunit. The conditions noted are these: ligand alone.

Procedure: K562 cells express the betal integrin subunit, but not the alpha4 integrin subunit. Staining was quantified by FLOW cytometry, which was performed on a Coulter® XL-MCL™ Flow Cytometer (Beckman Coulter, Inc.; Fullerton, Calif.). Cells were harvested and adjusted to a concentration of 1×10^6 cells/ml in TBS plus 1 mM CaCl2 and MnCl2. Fc-ligand antibody conjugates, Fc fragments, or ligands were then incubated at various concentrations with cells for 1 hour at room temperature. Cells were centrifuged at 1000 RPM for 5 minutes, liquid was aspirated, and cells were resuspended and spun down again. Cells were then incubated with a detecting agent, e.g., 1:1000 streptavidin-PE or 1:500 anti-human Fc-FITC (Sigma-Aldrich Co.) for 1 h at room temperature. Cells were washed two times as described above and then resuspended in PBS at a concentration of 1×10^6 cells/ml. Cellular fluorescence was visualized using a fluorescent microscope.

In general, IC50 refers to the concentration that gives 50% inhibition. Lower therefore signals higher potency. `Cc1ccccc1NC(=O)Nc1ccc(CC(=O)N[C@@H](CCCCNC(=O)/C=C/c2cccnc2)C(=O)N[C@@H](CCCC(=O)O)C(=O)NC2(C(=O)NCCOCCOCCNC(=O)CCC(=O)N[C@@H](Cc3ccc(O)c(O)c3)C(=O)NCCOCCOCCNC(=O)CCC(=O)NCCOCCOCCNC(=O)CCC(=O)N[C@@H](CCCCNC(=O)CCCC[C@@H]3SC[C@@H]4NC(=O)N[C@@H]43)C(N)=O)CCCCC2)cc1` [Ligand 2A-DOPA-Biotin]: the IC50 worked out at 2 pM.
